Test results reported in paper PMC6100543, “Parthenolide Inhibits STAT3 Signaling by Covalently Targeting Janus Kinases” (Molecules : A Journal of Synthetic Chemistry and Natural …, 2018).

Target: T1, JAK2 (Mus musculus, UniProt Q62120)
T1 construct: JAK2-FLAG, overexpressed in HEK293 and immunoprecipitated
Assay: in vitro kinase assay with immunoprecipitated JAK2-FLAG; LC-MS/MS of PN-modified tryptic peptides
Assay type: biochemical

T1 sequence (Q62120 whole entry): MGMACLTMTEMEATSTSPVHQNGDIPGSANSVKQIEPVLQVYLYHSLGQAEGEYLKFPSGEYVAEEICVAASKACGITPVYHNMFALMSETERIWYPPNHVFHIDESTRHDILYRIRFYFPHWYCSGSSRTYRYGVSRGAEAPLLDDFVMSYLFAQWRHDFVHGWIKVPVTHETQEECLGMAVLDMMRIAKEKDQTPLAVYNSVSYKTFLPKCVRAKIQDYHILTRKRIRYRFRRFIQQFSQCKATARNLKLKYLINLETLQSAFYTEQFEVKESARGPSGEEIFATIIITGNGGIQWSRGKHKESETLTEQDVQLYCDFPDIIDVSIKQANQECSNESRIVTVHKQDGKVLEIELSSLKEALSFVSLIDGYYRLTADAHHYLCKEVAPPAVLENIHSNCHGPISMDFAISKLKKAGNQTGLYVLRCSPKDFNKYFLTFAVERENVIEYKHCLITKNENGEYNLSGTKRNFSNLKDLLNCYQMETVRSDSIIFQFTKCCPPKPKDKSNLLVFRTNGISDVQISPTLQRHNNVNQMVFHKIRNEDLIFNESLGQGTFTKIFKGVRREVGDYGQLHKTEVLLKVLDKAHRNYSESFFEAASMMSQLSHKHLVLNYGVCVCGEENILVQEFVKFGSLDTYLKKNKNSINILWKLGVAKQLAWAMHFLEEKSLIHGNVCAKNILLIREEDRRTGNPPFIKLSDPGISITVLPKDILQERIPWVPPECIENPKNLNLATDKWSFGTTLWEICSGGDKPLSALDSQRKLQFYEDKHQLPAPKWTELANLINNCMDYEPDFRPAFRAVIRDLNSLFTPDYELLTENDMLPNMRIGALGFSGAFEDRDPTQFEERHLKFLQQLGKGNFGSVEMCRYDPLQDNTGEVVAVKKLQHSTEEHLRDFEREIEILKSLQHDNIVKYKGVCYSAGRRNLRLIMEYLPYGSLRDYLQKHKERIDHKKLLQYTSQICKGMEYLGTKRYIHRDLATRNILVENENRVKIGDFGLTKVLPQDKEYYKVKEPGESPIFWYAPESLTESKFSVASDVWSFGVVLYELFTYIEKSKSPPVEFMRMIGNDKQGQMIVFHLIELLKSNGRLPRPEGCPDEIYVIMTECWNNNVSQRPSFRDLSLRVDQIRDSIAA

Compound: C=C1C(=O)O[C@H]2[C@H]1CC/C(C)=C/CC[C@@]1(C)O[C@@H]21 [PN, parthenolide]
- IC50: 3.94 µM
